This is an account of results in PMC6522930, “Design, synthesis and biological activity evaluation of a new class of 2,4-thiazolidinedione compounds as insulin enhancers” (Journal of Enzyme Inhibition and Medicinal Chemistry, 2019).

As usually defined, the EC50 is the midpoint of the concentration-response curve. What is called logP is the decadic logarithm of the partition coefficient of the neutral form, usually between octanol and water. High values mean a more lipophilic compound, low ones a more hydrophilic compound. One may read the pKa as the negative logarithm of the acid dissociation constant. The low end stands for a group that gives up its proton readily, the high end for a group that holds its proton tightly.

One data set deals with T1, PPARα (Homo sapiens, UniProt Q07869).
T1 construct: expressed in transfected cells
T1 sequence (Q07869 1-468): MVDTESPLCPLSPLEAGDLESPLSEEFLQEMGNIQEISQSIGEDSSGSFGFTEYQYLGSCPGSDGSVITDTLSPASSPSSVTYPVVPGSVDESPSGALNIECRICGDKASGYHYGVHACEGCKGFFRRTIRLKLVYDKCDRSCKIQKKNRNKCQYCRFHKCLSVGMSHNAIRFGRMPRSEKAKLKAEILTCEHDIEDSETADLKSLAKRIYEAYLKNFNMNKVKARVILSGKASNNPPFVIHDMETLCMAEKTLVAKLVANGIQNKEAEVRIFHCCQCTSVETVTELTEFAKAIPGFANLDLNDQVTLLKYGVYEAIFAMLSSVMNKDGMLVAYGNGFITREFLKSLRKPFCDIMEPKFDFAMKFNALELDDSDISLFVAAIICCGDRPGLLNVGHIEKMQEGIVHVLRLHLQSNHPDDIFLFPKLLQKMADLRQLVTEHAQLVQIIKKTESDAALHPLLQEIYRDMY
Kind of data set: In vitro activation of PPARα (cells containing PPAR, EC50). In kind it is cell-based. To be noted: n ≥ 8, 24 h; for EC50: read-out: EC50 ± SD PPARα. The protocol: (§1) According to the literature, the cells containing PPAR (α, β and γ) were obtained and transfected into 96-well plates the day before for cells culture. Transfection was performed according to the instructions of human PPAR enzyme-linked immunoassay. […] After 24 h, the drugs were added, and 20 μl of MTT was added to each well for another 6 h, and the cell liquid was collected by removing the culture medium, and 150 μl of DMSO was added to each hole. And the absorbance value (A) of each hole was measured under the wavelength of 460 nm.

For another data set, the target named is T2, PPARβ (Homo sapiens, UniProt Q03181).
T2 construct: expressed in transfected cells
T2 sequence (Q03181 1-441): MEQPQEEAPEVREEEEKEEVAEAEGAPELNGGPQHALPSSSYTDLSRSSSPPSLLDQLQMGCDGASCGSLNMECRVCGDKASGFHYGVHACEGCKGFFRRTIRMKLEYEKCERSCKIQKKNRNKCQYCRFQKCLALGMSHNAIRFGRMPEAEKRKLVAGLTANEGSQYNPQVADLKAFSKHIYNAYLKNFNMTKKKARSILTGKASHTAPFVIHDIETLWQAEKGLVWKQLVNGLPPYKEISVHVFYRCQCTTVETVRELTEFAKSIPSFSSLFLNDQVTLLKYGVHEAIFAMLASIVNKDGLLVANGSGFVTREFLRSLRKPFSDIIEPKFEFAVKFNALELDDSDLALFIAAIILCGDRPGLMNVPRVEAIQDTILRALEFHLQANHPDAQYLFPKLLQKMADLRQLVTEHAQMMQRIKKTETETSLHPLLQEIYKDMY
Kind of data set: In vitro activation of PPARβ (cells containing PPAR, EC50). In kind it is cell-based. To be noted: n ≥ 8; 24 h; read-out: EC50 ± SD PPARβ. The protocol:
as §1

The target in another data set is T3, PPARγ (Homo sapiens, UniProt P37231).
T3 construct: expressed in transfected cells
T3 sequence (P37231 1-505): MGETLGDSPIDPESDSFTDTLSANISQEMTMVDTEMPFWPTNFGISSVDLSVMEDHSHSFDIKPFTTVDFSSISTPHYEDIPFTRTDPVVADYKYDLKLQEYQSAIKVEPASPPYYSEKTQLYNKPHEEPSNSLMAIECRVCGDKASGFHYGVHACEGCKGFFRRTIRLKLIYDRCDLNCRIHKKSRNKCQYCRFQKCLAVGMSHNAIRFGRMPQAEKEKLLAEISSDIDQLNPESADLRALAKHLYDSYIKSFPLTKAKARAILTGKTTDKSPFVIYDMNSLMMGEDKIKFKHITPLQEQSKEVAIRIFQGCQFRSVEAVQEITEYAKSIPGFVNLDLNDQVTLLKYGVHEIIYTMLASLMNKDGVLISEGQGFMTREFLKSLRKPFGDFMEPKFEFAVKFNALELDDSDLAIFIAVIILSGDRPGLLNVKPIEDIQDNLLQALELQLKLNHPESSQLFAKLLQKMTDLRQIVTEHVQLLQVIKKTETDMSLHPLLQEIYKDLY
Kind of data set: In vitro activation of PPARγ (cells containing PPAR, EC50). In kind it is cell-based. Particulars: n ≥ 8; 24 h; read-out: EC50 ± SD PPARγ. On the procedure:
as §1

Data set [1] is described as follows: Lipid–water partition coefficient (log p). In kind it is physicochemical. The source says:
(§2) Drug in vitro experiment was one of the basic contents to evaluate drugs activity, and it was a necessary approach to research drugs. Drugs’ efficacy was often affected by some physical and chemical properties of compounds, such as lipid–water partition coefficient (log p), and dissociation degree (pKa). […] In Table 1, we could find that target compounds were fat-soluble. The fat-soluble compounds were favourable for drugs absorption, and drugs were easy to enter the cells. […] The pKa will affect the absorption and delivery of the drugs, different environmental (acid and alkalinity) medicine may be different, sometimes exists in the form of ions, sometimes exists in the form of molecules. Usually in the form of ion drugs has no effect. Therefore, it was necessary to study the dissociation degree (pKa) of drugs to study the pharmacodynamics. […] After the physical and chemical properties were studied, the biological activity was studied. […] After that, the target compounds 6a, 6e, 6f, 6g and 6i had good biological activity and were preliminarily screened out for further study on PPARγ receptor agonist activity (Figure 5).

Data set [2] in a line: Dissociation degree (pKa). The format is physicochemical.
From the text: as §2

In data set [3] the test system is healthy mice. Kind of data set: Oral glucose tolerance test. In kind it is in vivo. The protocol:
In vivo experiments, glucose tolerance test, insulin tolerance test, cell survival experiment and acute toxicity were used as the test indicators (Tables 2, [3] and [4]). In Table 2, we chose dose 10 mg kg^−1 d^−1 and used oral administration. […] The mice were given the drug for 10 d, blood was collected from the tail vein of the mice before and after the sugar load for 1 h and 2 h, and the blood glucose level of the mice before and after the sugar load was measured by the glucometer.
(§3) (1) Glucose tolerance test: The healthy mice (20 ± 2 g) were selected. After 1 week of acclimation, mice with no body surface damage, good general condition and flexible reaction were selected for the experiment. The test compounds were dissolved with DMSO, and were given a dose volume of 0.2 ml 10 g^−1, and a dose of 10 mg kg^−1, and given by gavage (oral) once a day. […] The mice were given the drug for 10 d, and after the last dose, the mice fasted for 12 h. The next day, blood was collected from the tail vein of the mice before and after the sugar load for 1 h and 2 h, and the blood glucose level of the mice before and after the sugar load was measured by the glucometer. […] The 12 h of fasting after the last administration, blood was taken from the orbital venous plexus (used to measure the blood glucose level after fasting). Each group was immediately given a subcutaneous injection of 0.2 μg kg^−1 of insulin. After 1 h and 2 h of injection, blood was taken again. (3) Cell survival experiment: The HUVEC cells were inoculated on the 96-well plate at the initial concentration of 3 × 10^3 cells/holes, and 100 μl RPMI 1640 medium were added to each hole. At 5% CO2 and 37 °C cell cultivation in 24 h, every pore solution in different concentrations. […] And determine the hole under 460 nm wavelength absorbance value (A).

Data set [4] deals with healthy mice. Kind of data set: Insulin tolerance test (blood glucose under insulin load). In kind it is in vivo. The protocol:
as §3

Another data set has as its system HUVEC cells. As to the kind of experiment: Cell survival experiment (cytotoxicity). The format is cell-based. Particulars: for Cell survival rate: HUVEC cells. On the procedure: as §3
The nature of data set [5]: Acute toxicity test (LD50). The format is in vivo. To be noted: oral administration; n ≥ 3.

For `O=C1NC(=O)C(Cc2ccc(OCCNC(=O)c3ccc(O)cn3)cn2)S1` (stereo not drawn) [Compound 6l, N-(2-((6-((2,4-dioxothiazolidin-5-yl)methyl)pyridin-3-yl)oxy)ethyl)-5-hydroxypicolinamide], the EC50 was 9.34 ± 1.01 µM on PPARα, 10.1 ± 1.12 µM at PPARβ and 2.68 ± 0.46 µM at PPARγ. The compound also showed a lipophilicity (logP) in data set [1] of 1.45. The same compound registered a pKa in data set [2] of 8.58.
Take `O=C1NC(=O)C(Cc2ccc(OCCNC(=O)c3ccccn3)cn2)S1` (stereo not drawn) [Compound 6d, N-(2-((6-((2,4-dioxothiazolidin-5-yl)methyl)pyridin-3-yl)oxy)ethyl) picolinamide]: the EC50 worked out at 12.2 ± 1.21 µM at PPARβ and 3.22 ± 0.65 µM on PPARγ. For the same compound, the logP in data set [1] was 1.38. In [2], this compound yielded a pKa of 9.78.
For `O=C1NC(=O)C(Cc2ccc(OCCNC(=O)c3ccc(O)cc3)cn2)S1` (stereo not drawn) [Compound 6j, N-(2-((6-((2,4-dioxothiazolidin-5-yl)methyl)pyridin-3-yl)oxy)ethyl)-4-hydroxybenzamide], in that order: 14.5 ± 1.2 µM, 0.34 ± 0.15 µM, 2.11 and 9.01.
Consider `Cc1ccc(C(=O)NCCOc2ccc(CC3SC(=O)NC3=O)nc2)nc1` (stereo not drawn) [Compound 6h, N-(2-((6-((2,4-dioxothiazolidin-5-yl)methyl)pyridin-3-yl)oxy)ethyl)-5-methylpicolinamide], for which the EC50 at PPARα came out at 10.6 ± 1.86 µM; on PPARγ, 0.28 ± 0.13 µM. In [1], this compound came in with a logP of 2.01. The compound further showed a pKa in data set [2] of 9.41.
As for `O=C1NC(=O)C(Cc2ccc(OCCNC(=O)c3ccccc3)cn2)S1` (stereo not drawn) [Compound 6b, N-(2-((6-((2,4-dioxothiazolidin-5-yl)methyl)pyridin-3-yl)oxy)ethyl) benzamide], the EC50 on PPARα was found to be 12.9 ± 1.29 µM; on PPARβ, 9.18 ± 0.89 µM; on PPARγ, 1.29 ± 0.53 µM. The same compound had a logP in data set [1] of 1.77. In [2], this compound returned a pKa of 10.4.
In the case of `O=C1NC(=O)C(Cc2ccc(OCCNC(=O)c3ccccc3)cc2)S1` (stereo not drawn) [Compound 6a, N-(2–(4-((2,4-dioxothiazolidin-5-yl)methyl)phenoxy)ethyl) benzamide], the “EC50 ± SD PPARα” value on PPARα was “ia^b”. Besides, at PPARγ, the EC50 is 0.08 ± 0.02 µM. This compound also gave a logP in data set [1] of 2.68. The compound further registered a pKa in [2] of 10.4. Moreover, the “Blood glucose levels 1 h” value was found to be 6.342 ± 2.011 mmol/L with healthy mice [3] (10 mg kg^−1 d^−1 oral for 10 d, 1 h after sugar load) and 1.801 ± 0.531 mmol/L in the data set on healthy mice [4] (10 mg kg^−1 d^−1 for 15 d, 1 h after s.c. insulin 0.2 μg kg^−1). Further, the “Blood glucose levels 2 h” value worked out at 3.368 ± 1.341 mmol/L in the data set with healthy mice [3] (10 mg kg^−1 d^−1 oral for 10 d, 2 h after sugar load) and 2.498 ± 1.136 mmol/L in the data set with healthy mice [4] (10 mg kg^−1 d^−1 for 15 d, 2 h after s.c. insulin 0.2 μg kg^−1). In addition, the “Blood glucose levels 0 h” value with healthy mice [3] (10 mg kg^−1 d^−1 oral for 10 d, fasted 12 h, before sugar load) stood at 3.376 ± 0.361 mmol/L; in the data set on healthy mice [4] (10 mg kg^−1 d^−1 for 15 d, fasted 12 h, before insulin) it was 5.644 ± 1.035 mmol/L. Besides, the “Effect in glucose tolerance test (in words)” value in the data set with healthy mice [3] (10 mg kg^−1 d^−1 oral, 10 d) was “good resistance activation to glucose”. The “Effect in insulin tolerance test (in words)” value with healthy mice [4] (10 mg kg^−1 d^−1) is listed as “good resistance activation to insulin”. Further, the “Cytotoxic effect (in words)” value in the data set on HUVEC cells (10^−3–10^−2 mol L^−1) is “no obvious cytotoxic effect”. For the same compound, the Cell survival rate in the data set on HUVEC cells (10^−2 mol l^−1) is given as 93.1 ± 1.21%; with HUVEC cells (10^−3 mol l^−1) it was 98.1 ± 0.28%; in the data set on HUVEC cells (10^−4 mol l^−1), 99.3 ± 0.26%; in the data set on HUVEC cells (10^−5 mol l^−1), 99.9 ± 0.11%; with HUVEC cells (10^−6 mol l^−1) it was 100%. Besides, the “LD50 ± SD” value in data set [5] is 2313.6 ± 1.26 mg/kg.
`O=C1NC(=O)C(Cc2ccc(OCCNC(=O)c3ccccn3)cc2)S1` (stereo not drawn) [Compound 6c, N-(2-(4-((2,4-dioxothiazolidin-5-yl)methyl)phenoxy)ethyl) picolinamide]: the EC50 amounted to 13 ± 1.56 µM on PPARα and 0.45 ± 0.21 µM on PPARγ. Moreover, in data set [1], the logP was determined as 1.92. The compound also registered a pKa in data set [2] of 10.
